{"source": "patent US11938137B2", "about": "“Lipid prodrugs of mycophenolic acid and uses thereof” (PureTech LYT, Inc., priority 2017, dated 2024)", "key": {"[1]": {"test": "In vitro release of MPA from prodrugs in plasma supplemented with lipoprotein lipase (LPL)", "assay_type": "in vitro ADME, rat", "details": "60 min; n = 3 unless specified otherwise", "method": "The percentage of MPA released at 60 minutes in LPL-supplemented rat plasma was also determined for selected compounds. […] The designation “**” indicates a release % of >25% to 50%. The designation “***” indicates a release % of >50% to 75%. The designation “****” indicates a release % of >75%.\nIn order to probe the release of free drug from TG prodrugs in the systemic circulation, prodrugs were incubated with plasma (rat, mouse, dog, pig or human) supplemented with lipoprotein lipase (LPL, 200 IU/ml). LPL is a key enzyme required for the hydrolysis of lipoprotein associated TG in the systemic circulation and is therefore expected to be a key contributor to lipolysis of the re-esterified drug-TG construct in plasma, largely via liberation of fatty acids in the sn-1 and the sn-3 position of the TG-mimetic, prior to drug release from the 2′ position via esterase hydrolysis. LPL is […] is tethered to the luminal surface of vascular endothelial cells under physiological conditions. In the current in vitro studies, plasma was therefore supplemented with LPL to better reflect the in vivo situation. To start hydrolysis, 10 μl of LPL solution (10,000 IU/ml) was added to a mixture of 10 μl of prodrug solution (1 mg/ml dissolved in acetonitrile) and 500 μl of blank plasma. The mixture was incubated at 37° C. Samples (20 μl) of the incubation solution were taken at 0, 5, 15, 30, 60, 90, 120 and 180 minutes post-incubation and added to 180 μl of MeCN to stop lipolysis. The mixture was vortexed and centrifuged at 4500×g for 5 minutes to precipitate proteins prior to analysis. The supernatant was analyzed by HPLC-MS/MS for the potential products (MG form, acid form, and free drug) of prodrug hydrolysis."}, "[2]": {"test": "Prodrug lymph node study in mice (free MPA in mesenteric and peripheral lymph nodes)", "assay_type": "in vivo, mouse", "details": "oral multiple dose study (2 times daily for 2 days, samples on 3rd day)", "text": "This experiment included a single and multiple dose study."}, "[3]": {"test": "Lymphatic transport assay in mesenteric lymph-duct cannulated rats", "assay_type": "in vivo, rat", "details": "total MPA related compound, intraduodenal infusion, anesthetised mesenteric lymph-duct cannulated rats; class symbols", "method": "In order to assess the lymphatic transport of disclosed lipid prodrugs in rats, the mesenteric lymph ducts of the rats used in this study were cannulated to allow continual collection of mesenteric lymph. Lipid formulations containing the compound of interest were then administered to the animals, lymph was collected, and drug concentrations in the lymph samples were quantified.\nLipid-based formulations of the compounds of the invention or control compounds were prepared as previously described (Trevaskis, N. L. et al., Pharmaceutical Research, 2005, 22(11), 1863-1870, WO 2016/023082, and WO 2017/041139, hereby incorporated by reference.\nIn brief, either 1 or 2 mg of test prodrug, 40 mg oleic acid and 25 mg Tween 80 were mixed in a glass vial and incubated at 37° C. for 12-18 h to equilibrate. An aqueous phase consisting of 5.6 ml phosphate buffered saline (PBS, pH 7.4) was subsequently added to the lipid phase (MPA was dissolved in PBS for the preparation of MPA containing formulations) and the formulation emulsified by ultrasonication with a Misonix XL 2020 ultrasonic processor (Misonix, Farmingdale, NY, USA) equipped with a 3.2-mm microprobe tip running at 30% of the maximal amplitude of 240 μm and a frequency of 20 kHz for 2 min at room temperature. Doses for administering to more than one animal can be prepared in one batch by suitably increasing the quantities given above. Drug/prodrug concentrations in all formulations were verified using HPLC-MS.\nMale Sprague-Dawley (SD) rats were selected for the lymphatic transport studies. Rats (typically 240-320 g) were maintained on a standard diet and fasted overnight with free access to water prior to experiments.\nAnesthetized rats were placed on a heated pad at 37° C. and cannulas inserted into the duodenum (for formulation administration and rehydration), mesenteric lymph duct (for lymph collection), and carotid artery (in cases where blood collection was conducted). Post-surgery, rats were re-hydrated for 0.5 h via intraduodenal infusion of normal saline at 2.8 mL/h. The lipid formulations were infused into the duodenum at 2.8 mL/h for 2 h after which, normal saline was infused at 2.8 mL/h for the remainder of the experiment. Lymph was continuously collected for up to 8 h into pre-weighed Eppendorf tubes containing 10 μL of 1,000 IU/mL heparin. The collection tubes were changed hourly and lymph flow was measured gravimetrically. Aliquots of hourly lymph samples were stored at −20° C. prior to assay.\nDrug concentration in lymph is expressed as total drug and includes free drug and drug associated with different glycerides. Lymph samples are first treated with a lipase or other appropriate conditions to liberate free active agent prior to measurement of active agent levels in the lymph. Treatment with a lipase or other hydrolysis conditions liberates free active agent from any corresponding re-esterified glycerides. Porcine pancreatic lipase is appropriate for this purpose. Alternatively, hydrolysis with 0.5 M NaOH may be used. For MPA “phenol” prodrugs (i.e. prodrugs linked to the triglyceride at the aromatic —OH group of MPA), hydrolysis was performed with 0.5 M NaOH except for the lymph samples collected from 3 rats in the group of compound I-20 (MPA-O-C12α′βMe-TG), which were hydrolyzed by porcine pancreatic lipase.\nTransport of compounds into lymph during each hourly collection period was calculated from the product of the volume of lymph collected and the measured concentrations in lymph. For fluorescently-labelled compounds such as a BDP-conjugate, the concentrations of total compound may be measured by fluorescence spectroscopy without hydrolysis.\nThe results of the lymphatic transport assays are summarized in Table 2, below, and FIGS. 1-19. Table 2 summarizes lymphatic transport of total MPA related compound (% of administered dose) following intraduodenal infusion to anaesthetised, mesenteric lymph-duct cannulated rats. […]"}, "[4]": {"details": "cited from earlier work"}}}
{"smiles": "CCCCCCCCCCCCCCCC(=O)OCC(COC(=O)CCCCCCCCCCCCCCC)OC(=O)CC/C(C)=C/Cc1c(O)c2c(c(C)c1OC)COC2=O", "note": "[I-34, MPA-2-TG]", "values": [{"measurement": "Percentage MPA release at 60 min in LPL supplemented rat plasma", "setting": "[1]", "value": "*** (a release % of >50% to 75%)"}, {"measurement": "concentrations of free MPA in mesenteric lymph nodes compared with MPA", "setting": "[2]", "value": "Much higher concentrations"}, {"measurement": "Cumulative lymphatic transport % dose (Mean ± SD, or Range if n = 2)", "setting": "[3]", "value": "A (greater than 10% (>10%))"}]}
{"smiles": "CCCCCCCCCCC(=O)O[C@H]1CC[C@H]2[C@@H]3CCC4=CC(=O)CC[C@]4(C)[C@H]3CC[C@]12C", "note": "[testosterone undecanoate]", "values": [{"measurement": "bioavailability of testosterone after oral administration of the undecanoate ester", "setting": "[4]", "value": "< 5", "unit": "%"}]}
